From article PMC7397466, “Expression, purification and crystal structure determination of a ferredoxin reductase from the actinobacterium Thermobifida fusca” (Acta Crystallographica. Section F, Structural Biology …, 2020) come the findings set out here.

For this assay, the target named is T1, FdR9 (Thermobifida fusca, UniProt Q47QF8).
T1 construct: gene Tfu_1273
Nature of the assay: X-ray crystal structure, […] Å. The assay is classed as binding. The conditions noted are these: copurified cofactor; crystals at pH 6.5, 298 K.

Molecules are shown by their SMILES.

T1 sequence (Q47QF8 entry or part of it): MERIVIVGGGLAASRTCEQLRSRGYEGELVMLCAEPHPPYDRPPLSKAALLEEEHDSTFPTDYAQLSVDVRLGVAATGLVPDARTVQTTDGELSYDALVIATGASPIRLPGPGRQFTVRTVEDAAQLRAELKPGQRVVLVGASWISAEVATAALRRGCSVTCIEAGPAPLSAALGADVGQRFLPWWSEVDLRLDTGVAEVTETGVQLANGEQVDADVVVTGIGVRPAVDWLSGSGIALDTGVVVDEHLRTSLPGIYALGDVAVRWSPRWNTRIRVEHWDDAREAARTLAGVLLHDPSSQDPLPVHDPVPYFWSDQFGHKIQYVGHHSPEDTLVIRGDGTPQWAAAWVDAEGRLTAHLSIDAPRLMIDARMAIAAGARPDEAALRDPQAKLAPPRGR

Take `Cc1cc2nc3c(=O)[nH]c(=O)nc-3n(C[C@H](O)[C@H](O)[C@H](O)COP(=O)(O)OP(=O)(O)OC[C@H]3O[C@@H](n4cnc5c(N)ncnc54)[C@H](O)[C@@H]3O)c2cc1C` [FAD]: the “X-ray crystal structure, 1.9 Å” value is on record as “The resulting electron-density map allowed the identification of the FAD molecule bound to the reductase”.
